# In US11028364B2, “Compositions and methods for modulating an immune response” (President and Fellows of Harvard College, priority 2015, dated 2021):
# Legend:
# Format in all cases: cell-based, mice
# [1] = tested on: B cells cultured with TFH cells; assay: in vitro cultures of B and TFH cells (activated culture) with addition of pathway/metabolic inhibitors; settings: inhibitor added to activated culture (B + TFH), anti-CD3/IgM
# Description: (§1) To determine the mechanisms of how TFH and B cells are altered during direct TFR suppression, an in vitro suppression assay in which TFR cells are cultured with TFH and B cells was utilized. See e.g., Sage et al., J Clin Invest 124, 5191-5204 (2014); Sage et al., Immunity 41, 1026-1039 (2014); Sage et al., Methods Mol Biol 1291, 151-160 (2015). For these assays, FoxP3IRES-GFP mice were immunized with NP-OVA (emulsified in CFA) subcutaneously and isolated draining lymph nodes 7 days later. TFR (sorted as CD4+ICOS+CXCR5+CD19− FoxP3+) cells were added to co-cultures of B (sorted as CD19+) and TFH (sorted as CD4+ICOS+CXCR5+CD19−FoxP3) cells along with anti-CD3 and anti-IgM for 2 to 6 days (FIG. 1A, FIG. 36A, and FIG. 36B).
# To determine if suppressing Myc in activated B cells could recapitulate TFR suppression, in vitro suppression assays were performed in which B cells were cultured with TFH cells, TFH and TFR cells, or TFH cells and the Myc inhibitor 10058-F4 (F4w).
# The mTOR pathway promotes protein synthesis during activation and has been linked to enhancing cellular metabolism. […] In vitro cultures of B and TFH cells were performed along with either the mTORc1 inhibitor rapamycin or TFR cells. […] Akt can act both upstream and downstream of mTOR to mediate activation signaling.
# To determine if inhibiting glycolysis could recapitulate TFR suppression, cultures of B and TFH cells were performed with the addition of 2-deoxyglucose (2DG), a glucose analog that blocks glycolysis.
# Therefore, whether inhibitors of purine metabolism could recapitulate TFR suppression in vitro was determined.
# [2] = tested on: B cells from suppressed cultures; assay: RNA-seq transcriptional analysis of B cells from suppressed cultures supplemented with IL-21
# Description: In order to determine how B and TFH cells effector states are altered during TFR mediated suppression assays were performed followed by RNA-seq transcriptome analysis. In these experiments B and TFH cells (from immunized FoxP3-IRES-GFP mice) were cultured with or without TFR cells (from immunized ActinCFP FoxP3-IRES-GFP mice) for 6 days in the presence of NP-OVA (the same antigen used to generate the B, TFH and TFR cells). After 4 days of culture, B (sorted as CD19+IA+CD4−) and TFH (sorted as CD4+IA−CD19−CFP−) cells were sorted from the “activated” culture (TFH and B cells alone) or from the “suppressed” culture (TFH, B and TFR cells) and RNAseq transcriptional analysis was performed (FIG. 2A, FIG. 37A and FIG. 37B).
# In order to determine which B cell function genes were rescued at the transcriptional level, RNA-seq transcriptional analysis was performed on B cells from activated cultures, from suppressed cultures, and suppressed cultures supplemented with IL-21. […] In the case of Aicda and Pou2af1, it is possible that this may be due to the epigenetic modification of these gene loci by TFR cells, however this was not tested directly.
# Therefore, IL-21 overcomes TFR suppression by stimulating B cells as well as metabolic pathways.
# [3] = tested on: B cells cultured with TFH and TFR cells (suppressed cultures); assay: in vitro TFR suppression assay (B, TFH and TFR cells) with addition of cytokine; settings: for amount of secreted antibody in culture supernatants: compared to activated cultures
# Description: as §1, with “36B). After 6 days of co-culture of B and TFH cells, robust upregulation of the GC B cell marker GL7 was found as well as class switch recombination to IgG1, the predominant class switched isotype in this model (FIG. 1B). In addition, robust quantities of secreted IgG were found in the culture supernatant when B cells were cultured with TFH cells, but not when B cells were cultured alone. […] CD4^+CXCR5^−ICOS^−Foxp3^+ Treg cells were not able to suppress as efficiently as TFR cells did (FIG. 15). […] Therefore, this culture system is a robust model to study TFR suppression of TFH and B cells.” for “36B).”
# It is possible that B cell function genes and multiple metabolic pathways cooperate to induce class switch recombination and antibody production in B cells. […] Therefore, to determine ways to overcome suppressed B cells therapeutically, it is possible that both B cell genes and metabolism would need to be energized to overcome suppression. […] When IL-21 was added to suppression assays, the attenuation in proliferation of B cells mediated by TFR cells was rescued (FIG. 11A).
# Since metabolism is essential to facilitate B cell effector functions and is regulated by TFR cells, the metabolic potential of B cells was assessed in suppressed cultures with the addition of IL-21. […] Similarly, Glut1 expression on TFH cells was rescued when IL-21 was added to suppressed cultures. […] Therefore, addition of IL-21 can rescue the glycolytic function of suppressed B cells. It is possible that IL-21 rescues antibody production primarily through enhancing metabolism. To determine if enhanced glycolysis was required for the IL-21 rescue of antibody production in suppressed cultures, glycolysis was blocked to determine if antibody responses could still be rescued in the absence of enhanced metabolism. […] Therefore, IL-21 renders B cells resistant to TFR mediated suppression primarily by enhancing metabolism.
# Whether IL-21 restored antibody production by acting directly on B cells was determined. Suppression assays were performed using B cells lacking the receptor for IL-21 (Il21r−/−). […] Since upregulation of GL7 is a robust indicator of B cell activation, its expression in suppressed cultures containing either Il21r+/+ B cells or Il21r−/− B cells and supplemented with IL-21 was compared.
# Since IL-21 could be affecting the TFH, B or TFR cell in the suppressed culture, whether the rescue of suppressed metabolism could be due to a combined effect of stimulating B cells and inhibiting TFR suppression (by acting directly on the TFR cell) was determined. […] Therefore, IL-21 rescue of TFR cell suppression of B and TFH cells is the result of modulation of B cells as well as inhibiting TFR cells.
# [4] = Il21r−/− B cells, suppressed cultures plus IL-21
# [5] = cytokine added to suppressed culture
# [6] = cytokine added to suppressed cultures
# [7] = suppressed cultures with vs without IL-21
molecule,measurement,setting,value
"O=CC[C@@H](O)[C@H](O)[C@H](O)CO [2DG, 2-deoxyglucose]",secreted antibody / antibody production in culture supernatants,[1],robust suppression
"Cn1cnc([N+](=O)[O-])c1Sc1ncnc2nc[nH]c12 [AZA, azathioprine]",class switch recombination (IgG1+GL7+ B cells),[1],potently suppressed
same,secreted antibody / antibody production in culture supernatants,[1],robust suppression
CCc1ccc(/C=C2/SC(=S)NC2=O)cc1 [10058-F4],class switch recombination (IgG1+GL7+ B cells),[1],slight diminishment
same,secreted antibody / antibody production in culture supernatants,[1],robustly attenuated
"CN(Cc1cnc2nc(N)nc(N)c2n1)c1ccc(C(=O)N[C@@H](CCC(=O)O)C(=O)O)cc1 [MTX, Methotrexate]",class switch recombination (IgG1+GL7+ B cells),[1],potently suppressed
same,secreted antibody / antibody production in culture supernatants,[1],robustly suppresses
IL-21: cytokine essential in the germinal center reaction,genes differentially expressed on suppression that are rescued (RNA-seq),[2]; 12 genes differential in both suppressed vs IL-21 rescue and suppressed vs activated,only Ighg1 and Ighg2c were ‘rescued’
same,"Aicda, Xbp1 and Pou2af1 transcripts (RNA-seq)",[2]; suppressed plus IL-21 cultures,did not show any evidence of rescue
same,metabolic pathways (ssGSEA on RNA-seq),[2]; suppressed plus IL-21 cultures,some rescue of many metabolic pathways
same,B cell function gene transcripts (RNA-seq),[2]; suppressed vs. suppressed plus IL-21 cultures,"only transcripts for the individual IgG isotypes (Ighg1, Ighg2c, Ighg2b, Igha) showed evidence of significant upregulation"
same,GL7 expression in B cells,"[3]; Il21r+/+ B cells, suppressed cultures plus IL-21",restored
same,GL7 expression in B cells,[3]; [4],not
same,antibody responses (IgG1+GL7+ B cells),[3]; [4],no evidence was found that antibody responses were restored
same,number of B cells,[3]; [4],did not abolish the increase
same,restoration of CSR,[3]; [4],prevent the restoration
same,restoration of Glut1 expression on B cells,[3]; [4],prevent the restoration
same,proliferation of B cells (Cell Trace Violet dilution),[3]; cytokine added to suppressed culture (B + TFH + TFR),rescued
same,class switch recombination (IgG1+GL7+ B cells),"[3]; cytokine added to suppressed culture, compared to activated culture",much higher
same,amount of secreted antibody in culture supernatants,[3]; [5],mostly rescued
same,Glut1 expression on B cells,[3]; [6],completely rescued
same,Glut1 expression on TFH cells,[3]; [6],rescued
same,glucose consumption in the culture,[3]; [6],almost completely rescued
same,lactate production in culture supernatants,[3]; [6],substantially (although not completely) rescue
same,rescue of antibody production when glycolysis is blocked,[3]; suppressed cultures plus IL-21 with addition of 2-deoxyglucose (2DG),not being able to rescue suppression
same,Glut1 expression in TFR cells,[3]; [7],higher
same,intracellular Ki67 staining in TFR cells,[3]; [7],much less
IL-6: another Stat3 signaling cytokine,amount of secreted antibody in culture supernatants,[3]; [5],able to rescue
same,lactate production in culture supernatants,[3]; [6],substantially (although not completely) rescue
"IL-4: cytokine added to suppressed cultures (protein, UniProt P05112 25-153, looked up) Interleukin-4: HKCDITLQEIIKTLNSLTEQKTLCTELTVTDIFAASKNTTEKETFCRAATVLRQFYSHHEKDTRCLGATAQQFHRHKQLIRFLKRLDRNLWGLAGLNSCPVKEANQSTLENFLERLKTIMREKYSKCSS",amount of secreted antibody in culture supernatants,[3]; [5],did not occur
